Assay: Solubility in aqueous media / aqueous buffer solutions
Type: physicochemical

SMILES	solubility in the aqueous buffer solutions (hydrochloride salt, aqueous buffer solutions)	solubility in the aqueous media at various pH (free base, aqueous media at various pH)
CN1CCc2cccc3c2[C@@H]1Cc1ccc(O)c(O)c1-3.Cl [(6aS)-6-methyl-5,6,6a,7-tetrahydro-4H-dibenzo[de,g]quinoline-10,11-diol hydrochloride]	low solubility	
CN1CCc2cccc3c2[C@@H]1Cc1ccc(O)c(O)c1-3 [(6aS)-6-methyl-5,6,6a,7-tetrahydro-4H-dibenzo[de,g]quinoline-10,11-diol]		low solubility

— patent US20220313682A1, “Pharmaceutical Compositions of (6aS)-6-methyl-5,6,6a,7-tetrahydro-4H-dibenzo[de,g]quinoline-10,11-diol” (Aclipse One Inc., priority 2019, published 2022)
